The nature of series [1]: Body weight in mouse efficacy study. The format is in vivo. The settings on record: in g (unit assumed). As to the method: Female C.B-17 SCID (Inbred) mice that weighed 16–20 g were inoculated with 10 million HCC2302 lung adenocarcinoma cells (suspended in a mixture of Hank’s Balanced Salt Solution containing Matrigel at a 1:1 ratio) in the right flank subcutaneously. Tumors were monitored until they reached a mean tumor volume of 110–167 mm^3. The mean tumor volume across all three groups was 141 ± 16.64 mm^3 (mean ± SD) at the initiation of dosing (Study WF-31, n = 10). […] Tumor volumes were measured in two dimensions (length and width) using Ultra Cal-IV calipers. The tumor volume was calculated with the following formula: Tumor size (mm^3) = (longer measurement × shorter measurement^2)/2. Animal body weights were measured using an Adventura scale. Percent weight change was calculated using the following formula: Group percent weight change = (new weight − initial weight)/ initial weight) × 100%.
In a separate study, tumors were monitored until they reached a mean tumor volume of 121–159 mm^3. The mean tumor volume across all three groups was 138 ± 10.26 mm^3 (mean ± SD) at the initiation of dosing (Study WF-34, n = 10).

For the next series, the target named is T1, CYP1A2 (Homo sapiens, UniProt P05177).
T1 construct: phosphate buffer (100 mM, pH 7.4) containing human liver microsomes (HLM); from tissue; host or cells: human liver microsomes
T1 sequence (P05177 1-516): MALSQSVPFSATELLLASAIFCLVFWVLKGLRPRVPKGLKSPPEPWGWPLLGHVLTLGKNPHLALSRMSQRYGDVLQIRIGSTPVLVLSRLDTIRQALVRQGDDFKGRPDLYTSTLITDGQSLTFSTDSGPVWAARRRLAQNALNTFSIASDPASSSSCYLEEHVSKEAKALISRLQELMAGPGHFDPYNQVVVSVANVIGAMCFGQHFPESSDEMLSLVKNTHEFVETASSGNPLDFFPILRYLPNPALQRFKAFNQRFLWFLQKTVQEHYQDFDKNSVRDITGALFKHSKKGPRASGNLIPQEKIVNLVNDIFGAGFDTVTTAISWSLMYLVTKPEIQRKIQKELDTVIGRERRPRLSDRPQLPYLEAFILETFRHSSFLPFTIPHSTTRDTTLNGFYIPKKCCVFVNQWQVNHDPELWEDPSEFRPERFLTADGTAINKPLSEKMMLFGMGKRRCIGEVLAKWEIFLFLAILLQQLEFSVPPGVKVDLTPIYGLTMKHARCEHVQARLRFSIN
Put plainly: Reversible P450 inhibition in HLM. Conditions: human liver microsomes, pH 7.4, probe tacrine, substrate Tacrine. It is filed as biochemical. As to the method:
(§1) The reversible P450 inhibition assay was conducted in triplicate on a BioCel 1200 System, V11 (Agilent, CA), as previously described by Kosaka, et al.[28] […] Individual P450 specific substrates included midazolam for CYP3A4/5, dextromethorphan for CYP2D6, S-(+)-mephenytoin for CYP2C19, S-(-)-warfarin for CYP2C9, paclitaxel for CYP2C8, and tacrine for CYP1A2. P450 activity was expressed as the peak area ratio of a P450-specific metabolite formed relative to its internal standard, and inhibition percentage was calculated from P450 activity of samples relative to the solvent control. Inhibition data were processed using Prism (GraphPad Software, San Diego, CA) to calculate IC50 values for each P450 enzyme.
Background: Liver microsomes are a subcellular fraction often used to study metabolism.

Another series has as its target T2, CYP2C19 (Homo sapiens, UniProt P33261).
T2 construct: phosphate buffer (100 mM, pH 7.4) containing human liver microsomes (HLM); from tissue; host or cells: human liver microsomes
Put plainly: Reversible P450 inhibition in HLM. The settings on record: substrate Mephenytoin. The format is biochemical. The method, then: as §1

The next series addresses T3, CYP2C8 (Homo sapiens, UniProt P10632).
T3 construct: phosphate buffer (100 mM, pH 7.4) containing human liver microsomes (HLM); from tissue; host or cells: human liver microsomes
T3 sequence (P10632 1-490): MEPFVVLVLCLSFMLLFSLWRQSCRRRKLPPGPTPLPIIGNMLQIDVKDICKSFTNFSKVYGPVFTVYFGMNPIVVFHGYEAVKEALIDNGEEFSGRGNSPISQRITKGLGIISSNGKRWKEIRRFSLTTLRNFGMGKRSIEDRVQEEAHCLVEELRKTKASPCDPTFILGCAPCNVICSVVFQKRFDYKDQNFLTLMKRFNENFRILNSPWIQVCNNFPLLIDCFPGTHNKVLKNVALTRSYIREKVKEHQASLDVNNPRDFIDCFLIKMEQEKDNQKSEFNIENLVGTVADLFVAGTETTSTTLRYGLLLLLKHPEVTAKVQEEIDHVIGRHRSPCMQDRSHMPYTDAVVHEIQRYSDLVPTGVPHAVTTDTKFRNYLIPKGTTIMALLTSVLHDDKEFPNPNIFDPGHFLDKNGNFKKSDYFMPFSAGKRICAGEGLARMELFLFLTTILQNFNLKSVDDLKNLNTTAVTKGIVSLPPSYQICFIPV
Put plainly: Reversible P450 inhibition in HLM. The format is biochemical. Conditions: human liver microsomes, pH 7.4, probe paclitaxel, substrate Paclitaxel. As to the method:
as §1

In a further series the target is T4, CYP2C9 (Homo sapiens, UniProt P11712).
T4 construct: phosphate buffer (100 mM, pH 7.4) containing human liver microsomes (HLM); from tissue; host or cells: human liver microsomes
T4 sequence (P11712 whole entry): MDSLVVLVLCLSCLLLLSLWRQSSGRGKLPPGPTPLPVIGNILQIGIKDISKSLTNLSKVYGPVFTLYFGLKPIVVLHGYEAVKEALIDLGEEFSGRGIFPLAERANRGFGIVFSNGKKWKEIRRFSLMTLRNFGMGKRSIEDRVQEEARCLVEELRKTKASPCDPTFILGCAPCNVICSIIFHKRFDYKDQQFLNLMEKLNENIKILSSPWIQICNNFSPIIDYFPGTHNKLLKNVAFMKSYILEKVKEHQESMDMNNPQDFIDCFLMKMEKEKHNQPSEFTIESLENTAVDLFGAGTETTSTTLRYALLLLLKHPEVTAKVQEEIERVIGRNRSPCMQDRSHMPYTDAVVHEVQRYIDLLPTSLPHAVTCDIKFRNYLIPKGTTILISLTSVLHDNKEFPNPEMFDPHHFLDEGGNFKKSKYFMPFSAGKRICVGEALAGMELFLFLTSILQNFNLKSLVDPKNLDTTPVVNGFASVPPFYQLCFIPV
Put plainly: Reversible P450 inhibition in HLM. It is filed as biochemical. Conditions: human liver microsomes, pH 7.4, probe S-(-)-warfarin. The method, then:
as §1

In a further series the target is T5, CYP2D6 (Homo sapiens, UniProt P10635).
T5 construct: phosphate buffer (100 mM, pH 7.4) containing human liver microsomes (HLM); from tissue; host or cells: human liver microsomes
T5 sequence (P10635 whole entry): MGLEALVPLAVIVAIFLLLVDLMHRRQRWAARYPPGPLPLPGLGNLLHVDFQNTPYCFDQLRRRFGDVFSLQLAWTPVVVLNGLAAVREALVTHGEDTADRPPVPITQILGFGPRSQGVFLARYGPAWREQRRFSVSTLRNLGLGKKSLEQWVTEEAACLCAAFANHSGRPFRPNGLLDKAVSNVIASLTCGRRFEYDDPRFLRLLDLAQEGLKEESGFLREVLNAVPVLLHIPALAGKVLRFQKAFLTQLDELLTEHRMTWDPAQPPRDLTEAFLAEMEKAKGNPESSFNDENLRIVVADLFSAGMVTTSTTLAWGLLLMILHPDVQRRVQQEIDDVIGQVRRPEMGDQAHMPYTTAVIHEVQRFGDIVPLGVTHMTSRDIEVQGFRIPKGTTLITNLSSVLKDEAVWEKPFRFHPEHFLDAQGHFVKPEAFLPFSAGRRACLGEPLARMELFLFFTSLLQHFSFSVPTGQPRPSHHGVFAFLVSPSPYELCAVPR
Put plainly: Reversible P450 inhibition in HLM. The format is biochemical. The settings on record: human liver microsomes, pH 7.4, probe dextromethorphan, substrate Dextromethorphan. As to the method: as §1

The nature of series [2]: In vitro metabolism in human hepatocytes. Conditions: incubations with hepatocytes and microsomes of rats and humans.
Procedure: Hepatocyte cell count was ~1.1–1.8 × 10^6 cells/mL. After 3 h, samples were quenched with 3 volumes of acetonitrile, vortex mixed, and centrifuged. The supernatant (5 µL) was analyzed by LC-MS using a Kinetex EVO C18 column (1.7 μm, 2.1 × 150 mm) at 40 °C with a flow rate of 0.4 mL/min. Mobile phase A was 20 mM ammonium acetate in water, and mobile phase B was acetonitrile. The column was initially held at 5% B for 2 min, increased to 75% B over 33 minutes, and then increased to 95% B over 3 min, where it was maintained for 3 minutes before returning to 5% B over 0.5 min for re-equilibration. Mass spectrometry data was acquired using positive ion mode and data-dependent MS^2 acquisition.

The source of these data is article PMC11099041, “Tissue distribution and retention drives efficacy of rapidly clearing VHL-based PROTACs” (Communications Medicine, 2024).

As usually defined, the IC50 is the midpoint of a concentration-inhibition curve. A low value points to higher potency.

Several values for one entry are separate records, joined by “and”; a condition that tells them apart may be missing. Identical values can stand only once. Where only a bound is given, the exact number is not on record here.

T2 sequence (P33261 whole entry): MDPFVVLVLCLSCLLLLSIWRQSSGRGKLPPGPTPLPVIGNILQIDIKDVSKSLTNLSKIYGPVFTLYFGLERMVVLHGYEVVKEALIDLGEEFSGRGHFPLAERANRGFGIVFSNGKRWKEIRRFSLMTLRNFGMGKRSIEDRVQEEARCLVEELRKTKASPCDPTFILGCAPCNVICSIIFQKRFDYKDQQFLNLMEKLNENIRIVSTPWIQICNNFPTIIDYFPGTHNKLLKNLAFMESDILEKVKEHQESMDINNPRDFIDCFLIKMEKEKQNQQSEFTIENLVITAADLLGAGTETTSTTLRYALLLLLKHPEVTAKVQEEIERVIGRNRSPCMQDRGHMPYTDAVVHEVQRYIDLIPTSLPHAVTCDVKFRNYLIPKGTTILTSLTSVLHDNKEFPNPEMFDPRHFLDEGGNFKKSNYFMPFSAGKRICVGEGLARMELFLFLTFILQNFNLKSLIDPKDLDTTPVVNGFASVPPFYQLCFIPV

For `Cc1ncsc1-c1ccc(C(C)NC(=O)C2CC(O)CN2C(=O)C(c2cc(N3CCC(CN4CCC(OC5CC(Oc6cc(N7C8CCC7CN(c7cc(-c9ccccc9O)nnc7N)C8)ccn6)C5)CC4)CC3)no2)C(C)C)cc1` (stereo not shown) [A947], the “Body weight (mean)” value in series [1] (WF-31, 20 mg/kg IV QW, day 0, 3, 7, 10, 13, 14, 21) was 19.00 and 19.30 and 19.20 and 19.50; in series [1] (WF-31, 40 mg/kg IV QW, day 0, 3, 7, 10, 13, 14, 21), 18.67 and 18.78 and 18.56 and 17.67 and 19.40 and 18.60; in series [1] (WF-34, 40 mg/kg IV QW, day 0, 4, 8, 11, 15, 18, 22, 25, 29) it was 21.10 and 20.20 and 21.22 and 21.33 and 21.89 and 20.33 and 21.25 and 21.50. Also, the IC50 was greater than 10 µM on CYP1A2; 3 µM on CYP2C19 (human, human liver microsomes, pH 7.4, probe S-(+)-mephenytoin); roughly 3 µM at CYP2C19; greater than 10 µM against CYP2C8; greater than 10 µM on CYP2C9; greater than 10 µM against CYP2D6. Besides, the Compound metabolized in series [2] is recorded as less than 10%.
